Data from patent US5679663A, “Pharmaceutical compounds” (priority 1996, dated 1997).
Counter-ions that a name gives are not always drawn.

Key:
[1] = Solubility; settings: for solubility compared with the compound described under (A): relative to Example 5(A)
[2] = system: haloperidol-induced catalepsy; test: Impact on catalepsy caused by haloperidol; type: in vivo; settings: 100 mg/kg
Method: Catalepsy was evaluated from the animal's ability to maintain an awkward posture (hind legs placed on a 30 mm high pedestal and forelegs on the bench) for 90 seconds at intervals of 10, 60 and 120 minutes after the latest administration of haloperidol.

[3] = Pharmacological investigation (central nervous system); settings: in vivo
[4] = system: L-dopa induced hypothermia and motor activity; test: Interaction with L-dopa (hypothermia, depression and reduction of motor activity); type: in vivo; settings: 100 mg/kg; L-dopa 150 mg/kg, mice
Method: L-3,4-dihydroxyphenylalanine (L-dopa) was administered in a 150 mg/kg dose, which induces hypothermia, depression and reduction of motor activity.

[5] = Toxicity (LD100, LD50, MTD); type: in vivo; settings: for LD50 / MTD: in vivo; for LD50 / MTD / LD100: species and route not given; for MTD: read-out: MTD (maximum tolerance dose)
[6] = system: hypoxia induced by direct lack of oxygen; test: Lifetime following hypoxia induced by direct lack of oxygen; type: in vivo, white mice
Method: (§1) The potential of CAPAH to provide neuroprotection following a stroke was illustrated by its anti-hypoxic properties in mice using both hypoxia induced directly by lack of oxygen in the atmosphere and hypoxia induced by sodium nitrite injection.
White mice in groups of six with a standard weight of 18 grams were placed in hermetically sealed jars and the lifetime of the animals was recorded.

[7] = system: apomorphine-induced hypothermia; test: Apomorphine-induced hypothermia in mice; type: in vivo; settings: 90 mg/kg, 40 min before apomorphine 25 mg/kg s.c.
Method: The effect of CAPAH on apomorphine-induced hypothermia and stereotypy was evaluated. The hypothermia was induced by subcutaneously injecting mice with 25 mg/kg of apomorphine. The change in skin temperature was recorded by a TPEM-1 thermometer immediately before injecting with apomorphine and also 60 and 120 minutes after the administration.
(§2) Stereotypy in rats was induced by subcutaneous administration of 20 mg/kg of apomorphine. The total duration of the stereotypy episode was evaluated and also the intensity of individual components thereof (licking, gnawing, sniffing). CAPAH was administered 40 minutes before the apomorphine as a 90 mg/kg dose to the mice and 100 mg/kg dose to the rats.

[8] = system: hypoxia induced amnesia; test: Hypoxia induced amnesia, passive avoidance test; type: in vivo, Mongolian Gerbil
Source text: (§3) The protective effect of the compound CAPAH was studied in relation to both scopolamine and hypoxia induced amnesia in gerbils by the passive avoidance test.
(§4) Gerbils underwent a training schedule of "passive avoidance", i.e. they learned not to enter a dark compartment into which an electric shock was delivered.
The gerbils were trained as described above. To produce a hypoxic environment a gas-mixture (4% oxygen, 96% nitrogen) was blown through a plastic box (12 l/min). Immediately after the training period the gerbil was put into this hypoxic environment and removed when gasping was shown (maximum stay in the hypoxic box is 40 seconds).
(§5) The gerbils were trained as described above in a step-down type passive avoidance apparatus (Model E13-08, Coulbourn Instruments, Lehigh Valley, USA), divided into a safe part and a grill part. […] Training of the passive avoidance was carried out for 5 minutes. The gerbils were placed on the safety platform and received a series of mild electric shocks, […] (shock sensitivity determined for each batch of gerbils) for 3 seconds every 6 seconds when it stepped off the grill. Gerbils were returned to the apparatus for testing 24 hours later and their step-down latencies to the grill floor (recall latency) were recorded (maximum 60 seconds).
(§6) In both these series of experiments Piracetam was used as a control.

[9] = system: scopolamine induced amnesia; test: Scopolamine induced amnesia, passive avoidance test; type: in vivo, Mongolian Gerbil
Method: as §3, §4
Scopolamine Induced Amnesia
Gerbils received an intra-peritoneal injection of scopolamine (0.5 mg/kg) 30 minutes before the training procedure. The ability of CAPAH, given prior to scopolamine, to prevent the induced amnesia was determined.
as §5, §6

[10] = system: hypoxia induced by sodium nitrite; test: Lifetime following hypoxia induced by sodium nitrite; type: in vivo, white mice; settings: 90 mg/kg i.p.
Method: as §1
White mice in groups of eight with a weight in the range of 18 to 21 grams were injected subcutaneously with 300 mg/kg of aqueous sodium nitrite and their subsequent lifetime was recorded. A control group of mice received no additional pre-treatment but a second group received a prior intraperitoneal injection of 90 mg/kg CAPAH.

[11] = system: apomorphine-induced stereotypy; test: Apomorphine-induced stereotypy in rats; type: in vivo; settings: 100 mg/kg, 40 min before apomorphine 20 mg/kg s.c.
Method: as §2

[12] = system: learned helplessness (avoidance reaction); test: Learned helplessness model (avoidance reaction, shuttle chamber); type: in vivo, mice; settings: for Average latence of avoidance period / Percent of nonavoidance from total test number / Average latence of avoidable period: CAPAH 90 mg/kg, melipramine 7 mg/kg, i.p.
Method: The phenomenon of learned helplessness is that exposure to uncontrollable stress produces deficits in subsequent learning tasks. The preliminary non-avoidable aversive phase of the test was carried out in dark chambers (30 cm×15 cm×15 cm) with electrodes in the floor. Mice were placed into the chambers individually where they received a number of stimuli (150 mkA, 60 Hz) for 6 seconds with 30 second intervals. Exposure lasted for 40 minutes. 24 hours later the animals were tested in a "shuttle" chamber which consisted of two compartments with the electrode floor connected by the opening situated 1 cm above the base. The entrance to the neighbouring compartment was blocked by a door operated automatically. Stimulation (150 mkA) was directed in turn to each compartment with 30 second intervals and 4 seconds lag. After 10 sessions the door was closed and electric current stopped. The average summary latent time of avoidance was estimated as well as the total number of non-fulfilled reactions.
Experiments were carried out in 40 male […] weighing 18-20 g. Melipramine was used as a standard preparation. Preparations were injected intraperitoneally in doses: CAPAH--90 mg/kg, melipramine--7 mg/kg. Control animals received an equal quantity of distilled water. In the first control group (control 1) mice were not exposed to non-avoidable aversive stimulations; in the second control group (control 2) the animals were exposed to the preliminary non-avoidable aversive influence but without drug preparations.

[13] = system: mice immobilization (behavioural despair); test: Behavioural despair model (duration of immobilization, swimming); type: in vivo, mice (tetrahybrids SVA); settings: 90 mg/kg; for Duration of mice immobilization, behavioural despair test: 6 minutes of observation
Method: In this test, mice (tetrahybrids SVA) were obliged to swim in a limited space, presented as a cylindrical vessel which was 15 cm high containing a water level of 6 cm maintained at a temperature of 21° C. A "slowing down" of swimming activity was observed. This "slowing down" is regarded to reflect the state of lowering of spirits and increasing despair of the mice. The slowing down is diminished by anti-depressants.
CAPAH was investigated in acute and chronic application (for 10 days). The mean duration of animal immobility for 6 minutes of observation was estimated in seconds.
CAPAH was injected in a dose of 90 mg/kg 40 minutes before the experiment.

[14] = U.S. Pat. Nos. 4,162,264 and 4,162,311; cited from earlier work

CN(C)c1ccc(P(=O)(CC(=O)NN)OCCCl)cc1 (stereo not drawn) [CAPAH hydrochloride]
water solubility ([1]; water): high water solubility

CN(C)c1ccc(P(=O)(CC(=O)NN)OCCCl)cc1 (stereo not drawn) [CAPAH, (2-chloroethoxy)(p-N,N-dimethylaminophenyl)phosphinylacetohydrazide]
dopamine-mimetic activity [2]: reveals dopamine-mimetic activity | effect on haloperidol induced catalepsy ([2]; haloperidol 5 mg/kg hypodermic injection): reduces haloperidol induced catalepsy | effect on the central nervous system [3]: selectively affects the central nervous system | activity on L-dopa induced effects [4]: no activity | interval between the maximum tolerance dose (MTD) and the LD100 ([5]; comparison with DPAH): significantly greater interval | toxicity compared with DPAH ([5]; comparison with DPAH): less toxic | LD50 [5]: 960 ± 35 mg/kg | MTD [5]: 700 mg/kg | LD100 [5]: 1200 mg/kg | Lifetime (± deviation), hypoxia by direct lack of oxygen ([6]; 30 mg/kg i.p., second experiment): 16.4 ± 1.2 min | Lifetime (± deviation), hypoxia by direct lack of oxygen ([6]; 45 mg/kg i.p., first experiment): 18.8 ± 1.1 min | Lifetime (± deviation), hypoxia by direct lack of oxygen ([6]; 90 mg/kg i.p., first experiment): 17.0 ± 0.1 min | effect on lifetime, hypoxia by direct lack of oxygen ([6]; 90 or 45 mg/kg): extension of lifetime | effect on apomorphine-induced hypothermia [7]: no effect | Latency (sec ± SEM), hypoxia induced amnesia ([8]; 1 mg/kg): 135 ± 21 s | Latency (sec ± SEM), hypoxia induced amnesia ([8]; 10 mg/kg): 111 ± 25 s | Latency (sec ± SEM), hypoxia induced amnesia ([8]; 30 mg/kg): 71 ± 28 s | Latency (sec ± SEM), hypoxia induced amnesia ([8]; 100 mg/kg): 119 ± 23 s | toxicity of the dose ([8]; 300 mg/kg (1/3 DL50)): toxic | Latency (sec ± SEM), hypoxia induced amnesia ([8]; 300 mg/kg): 20 ± 8 s | activity in hypoxia induced amnesia test ([8]; doses 1, 10, 100 mg/kg): active | activity in hypoxia induced amnesia test ([8]; doses 30, 300 mg/kg): Activity was absent | Latency (sec ± SEM), scopolamine induced amnesia ([9]; 1 mg/kg): 35 ± 17 s | Latency (sec ± SEM), scopolamine induced amnesia ([9]; 10 mg/kg): 52 ± 21 s | Latency (sec ± SEM), scopolamine induced amnesia ([9]; 30 mg/kg): 36 ± 17 s | Latency (sec ± SEM), scopolamine induced amnesia ([9]; 100 mg/kg): 49 ± 16 s | Latency (sec ± SEM), scopolamine induced amnesia ([9]; 300 mg/kg): 76 ± 30 s | memory enhancement in scopolamine-induced amnesia ([9]; lower doses (below 300 mg/kg)): a trend towards memory enhancement | reversal of scopolamine-induced amnesia ([9]; only at 300 mg/kg): Statistically significant reversal | effect on lifetime, hypoxia induced by sodium nitrite [10]: extension of lifetime | Lifetime (± deviation), hypoxia induced by sodium nitrite ([10]; sodium nitrite 300 mg/kg s.c.): 16.9 ± 1.0 min | effect on apomorphine-induced stereotypy [11]: no effect | anti-depressant effects, learned helplessness ([12]; 90 mg/kg, single and chronic treatment): marked anti-depressant effects | Average latence of avoidance period ([12]; 6-fold injection): 9.0 ± 0.7 | Percent of nonavoidance from total test number ([12]; 6-fold injection): 2% | Average latence of avoidable period ([12]; 12-fold injection): 7.9 ± 0.7 | Percent of nonavoidance from total test number ([12]; 12-fold injection): 1.3% | Average latence of avoidable period ([12]; single injection): 12.1 ± 1.5 | Percent of nonavoidance from total test number ([12]; single injection): 19% | duration of "slowing down" (anti-depressant activity) ([13]; repeated application): lessens the duration of "slowing down" | Duration of mice immobilization, behavioural despair test ([13]; repeated injection (10 days)): 177.5 ± 17.5 | Duration of mice immobilization, behavioural despair test ([13]; single injection, 40 min before): 210 ± 22.5 s

NNC(=O)CP(=O)(c1ccccc1)c1ccccc1 [DPAH, diphenylphosphinylacetohydrazide, reference compound]
LD50 [5]: 315 ± 24.8 mg/kg | MTD [5]: 200 mg/kg | LD100 [5]: 500 mg/kg | properties of DPAH [14]: vegetropic, anti-epileptic and anti-serotonin properties

CC=CC=NNC(=O)CP(=O)(OCCCl)c1ccc(N(C)C)cc1 (stereo not drawn) [Example 5(A), N^β -(but-2-enylidene)-(2-chloroethoxy)-(p-N,N-dimethylaminophenyl)phosphinylacetohydrazide]
solubility in dimethyl sulphoxide and other aprotic polar solvents ([1]; dimethyl sulphoxide and other aprotic polar solvents): soluble in dimethyl sulphoxide and other aprotic polar solvents | solubility in most organic solvents and in water ([1]; most organic solvents and water): poorly soluble

CN(C)CCCN1c2ccccc2CCc2ccccc21 [Melipramine, reference compound]
Average latence of avoidance period ([12]; 6-fold injection): 11.8 ± 1.5 | Percent of nonavoidance from total test number ([12]; 6-fold injection): 29% | Average latence of avoidable period ([12]; 12-fold injection): 9.2 ± 1.1 | Percent of nonavoidance from total test number ([12]; 12-fold injection): 11% | Average latence of avoidable period ([12]; single injection): 13.5 ± 1.8 | Percent of nonavoidance from total test number ([12]; single injection): 43%

CN(C)c1ccc(P(=O)(CC(=O)NN=CC=Cc2ccccc2)OCCCl)cc1 (stereo not drawn) [N^β -cinnamaylidene]
solubility compared with the compound described under (A) [1]: similar

CN(C)c1ccc(P(=O)(CC(=O)NN=Cc2cccc([N+](=O)[O-])c2)OCCCl)cc1 (stereo not drawn) [N^β -m-nitrobenzylidene]
solubility compared with the compound described under (A) [1]: similar

CN(C)c1ccc(P(=O)(CC(=O)NN=Cc2ccccc2O)OCCCl)cc1 (stereo not drawn) [N^β -o-hydroxybenzylidene]
solubility compared with the compound described under (A) [1]: similar

NC(=O)CN1CCCC1=O [Piracetam, reference compound]
Latency (sec ± SEM), hypoxia induced amnesia ([8]; 100 mg/kg): 107 ± 19 s | Latency (sec ± SEM), scopolamine induced amnesia ([9]; 100 mg/kg): 73 ± 24 s
